Results from ChEMBL document CHEMBL4311999, “3-Hydrazinoisatin-based benzenesulfonamides as novel carbonic anhydrase inhibitors endowed with anticancer activity: Synthesis, in vitro biological evaluation and in silico insights” (Eur J Med Chem, 2019).

Tests used:
[1] = test system: NCI/ADR-RES; assay: Growth inhibition of human NCI/ADR-RES cells at 10 uM incubated for 48 hrs by sulforhodamine B assay relative to control; format: functional; conditions: read-out: GI
[2] = test system: IGROV-1; assay: Growth inhibition of human IGROV1 cells at 10 uM incubated for 48 hrs by sulforhodamine B assay relative to control; format: functional; conditions: IGROV-1, 48 h, read-out: GI
[3] = test system: SF-539; assay: Growth inhibition of human SF539 cells at 10 uM incubated for 48 hrs by sulforhodamine B assay relative to control; format: functional; conditions: SF-539, 48 h, read-out: GI
[4] = test system: OVCAR-5; assay: Growth inhibition of human OVCAR5 cells at 10 uM incubated for 48 hrs by sulforhodamine B assay relative to control; format: functional; conditions: OVCAR-5, 48 h, read-out: GI
[5] = test system: Hs-578T; assay: Growth inhibition of human Hs 578T cells at 10 uM incubated for 48 hrs by sulforhodamine B assay relative to control; format: functional; conditions: read-out: GI
[6] = test system: NCI-H226; assay: Growth inhibition of human NCI-H226 cells at 10 uM incubated for 48 hrs by sulforhodamine B assay relative to control; format: functional; conditions: NCI-H226, 48 h, read-out: GI
[7] = test system: SNB-75; assay: Growth inhibition of human SNB75 cells at 10 uM incubated for 48 hrs by sulforhodamine B assay relative to control; format: functional; conditions: SNB-75, 48 h, read-out: GI
[8] = test system: SN12C; assay: Growth inhibition of human SN12C cells at 10 uM incubated for 48 hrs by sulforhodamine B assay relative to control; format: functional; conditions: read-out: GI
[9] = test system: MDA-MB-231; assay: Growth inhibition of human MDA-MB-231 cells at 10 uM incubated for 48 hrs by sulforhodamine B assay relative to control; format: functional; conditions: MDA-MB-231, 48 h, read-out: GI
[10] = test system: NCI-H322M; assay: Growth inhibition of human NCI-H322M cells at 10 uM incubated for 48 hrs by sulforhodamine B assay relative to control; format: functional; conditions: read-out: GI
[11] = test system: OVCAR-8; assay: Growth inhibition of human OVCAR8 cells at 10 uM incubated for 48 hrs by sulforhodamine B assay relative to control; format: functional; conditions: OVCAR-8, 48 h, read-out: GI
[12] = test system: ACHN; assay: Growth inhibition of human ACHN cells at 10 uM incubated for 48 hrs by sulforhodamine B assay relative to control; format: functional; conditions: read-out: GI
[13] = test system: NCI-H460; assay: Growth inhibition of human NCI-H460 cells at 10 uM incubated for 48 hrs by sulforhodamine B assay relative to control; format: functional; conditions: NCI-H460, 48 h, read-out: GI
[14] = target: Carbonic anhydrase 2 (Homo sapiens, UniProt P00918); assay: Inhibition of recombinant human carbonic anhydrase 2 preincubated for 15 mins by phenol red dye based stopped flow CO2 hydration assay
[15] = test system: CAKI-1; assay: Growth inhibition of human Caki1 cells at 10 uM incubated for 48 hrs by sulforhodamine B assay relative to control; format: functional; conditions: CAKI-1, 48 h, read-out: GI
[16] = test system: OVCAR-4; assay: Growth inhibition of human OVCAR4 cells at 10 uM incubated for 48 hrs by sulforhodamine B assay relative to control; format: functional; conditions: OVCAR-4, 48 h, read-out: GI
[17] = test system: MOLT-4; assay: Growth inhibition of human MOLT4 cells at 10 uM incubated for 48 hrs by sulforhodamine B assay relative to control; format: functional; conditions: MOLT-4, 48 h, read-out: GI
[18] = test system: SK-OV-3; assay: Growth inhibition of human SKOV3 cells at 10 uM incubated for 48 hrs by sulforhodamine B assay relative to control; format: functional; conditions: SK-OV-3, 48 h, read-out: GI
[19] = test system: T47D; assay: Growth inhibition of human T47D cells at 10 uM incubated for 48 hrs by sulforhodamine B assay relative to control; format: functional; conditions: read-out: GI
[20] = target: Cyclin-dependent kinase 2/cyclin E1 (Homo sapiens, UniProt P24941); assay: Inhibition of human recombinant CDK2/Cyclin E expressed in baculovirus infected Sf9 cells using histone H1 substrate in presence of [gamma33P]ATP
[21] = test system: SK-MEL-5; assay: Growth inhibition of human SK-MEL-5 cells at 10 uM incubated for 48 hrs by sulforhodamine B assay relative to control; format: functional; conditions: SK-MEL-5, 48 h, read-out: GI
[22] = test system: A549; assay: Growth inhibition of human A549/ATCC cells at 10 uM incubated for 48 hrs by sulforhodamine B assay relative to control; format: functional; conditions: A549, 48 h, read-out: GI
[23] = target: Carbonic anhydrase 12 (Homo sapiens, UniProt O43570); assay: Inhibition of recombinant human carbonic anhydrase 12 preincubated for 15 mins by phenol red dye based stopped flow CO2 hydration assay
[24] = test system: Malme-3M; assay: Growth inhibition of human MALME-3M cells at 10 uM incubated for 48 hrs by sulforhodamine B assay relative to control; format: functional; conditions: read-out: GI
[25] = test system: SW-620; assay: Growth inhibition of human SW620 cells at 10 uM incubated for 48 hrs by sulforhodamine B assay relative to control; format: functional; conditions: SW-620, 48 h, read-out: GI
[26] = test system: SR; assay: Growth inhibition of human SR cells at 10 uM incubated for 48 hrs by sulforhodamine B assay relative to control; format: functional; conditions: read-out: GI
[27] = test system: MCF7; assay: Growth inhibition of human MCF7 cells at 10 uM incubated for 48 hrs by sulforhodamine B assay relative to control; format: functional; conditions: MCF7, 48 h, read-out: GI
[28] = test system: HCT-116; assay: Growth inhibition of human HCT116 cells at 10 uM incubated for 48 hrs by sulforhodamine B assay relative to control; format: functional; conditions: HCT-116, 48 h, read-out: GI
[29] = target: Carbonic anhydrase 9 (Homo sapiens, UniProt Q16790); assay: Inhibition of recombinant human carbonic anhydrase 9 preincubated for 15 mins by phenol red dye based stopped flow CO2 hydration assay
[30] = test system: U-251; assay: Growth inhibition of human U251 cells at 10 uM incubated for 48 hrs by sulforhodamine B assay relative to control; format: functional; conditions: U-251, 48 h, read-out: GI
[31] = test system: OVCAR-3; assay: Growth inhibition of human OVCAR3 cells at 10 uM incubated for 48 hrs by sulforhodamine B assay relative to control; format: functional; conditions: OVCAR-3, 48 h, read-out: GI
[32] = test system: DU-145; assay: Growth inhibition of human DU145 cells at 10 uM incubated for 48 hrs by sulforhodamine B assay relative to control; format: functional; conditions: DU-145, 48 h, read-out: GI
[33] = target: Carbonic anhydrase 1 (Homo sapiens, UniProt P00915); assay: Inhibition of recombinant human carbonic anhydrase 1 preincubated for 15 mins by phenol red dye based stopped flow CO2 hydration assay
[34] = target: CDK9/cyclin T1 (Homo sapiens, UniProt P50750); assay: Inhibition of human full length N-terminal GST-HIS6 fused CDK9 (M1 to F372 residues)/N-terminal HIS6-fused Cyclin-T1 (M1 to K726 residues) co-expressed in Sf9 cells using (YSPTSPS)2KK as substrate in presence of [gamma33P]ATP
[35] = test system: K562; assay: Growth inhibition of human K562 cells at 10 uM incubated for 48 hrs by sulforhodamine B assay relative to control; format: functional; conditions: K562, 48 h, read-out: GI
[36] = test system: M14; assay: Growth inhibition of human M14 cells at 10 uM incubated for 48 hrs by sulforhodamine B assay relative to control; format: functional; conditions: M14, 48 h, read-out: GI

Chain of Carbonic anhydrase 12 (O43570 whole entry): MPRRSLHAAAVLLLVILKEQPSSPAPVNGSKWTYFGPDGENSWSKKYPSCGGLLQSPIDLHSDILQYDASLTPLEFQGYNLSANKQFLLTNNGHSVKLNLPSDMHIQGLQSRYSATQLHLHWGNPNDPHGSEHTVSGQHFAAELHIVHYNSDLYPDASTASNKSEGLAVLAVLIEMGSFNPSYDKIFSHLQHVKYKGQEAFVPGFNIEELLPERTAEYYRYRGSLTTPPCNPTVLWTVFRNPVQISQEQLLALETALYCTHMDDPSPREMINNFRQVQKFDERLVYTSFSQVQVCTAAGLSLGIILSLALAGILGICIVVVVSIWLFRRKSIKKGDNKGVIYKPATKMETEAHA
Chain of Carbonic anhydrase 1 (P00915 whole entry, the tested form may be a part): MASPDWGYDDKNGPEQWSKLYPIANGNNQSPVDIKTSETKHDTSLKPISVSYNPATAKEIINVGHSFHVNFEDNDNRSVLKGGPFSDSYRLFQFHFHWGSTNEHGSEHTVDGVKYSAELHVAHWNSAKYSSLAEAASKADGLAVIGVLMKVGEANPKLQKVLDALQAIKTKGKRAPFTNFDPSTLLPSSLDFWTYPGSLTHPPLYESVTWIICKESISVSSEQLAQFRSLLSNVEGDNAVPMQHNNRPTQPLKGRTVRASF
Chain of CDK9/cyclin T1 (O60563 whole entry, the tested form may be a part): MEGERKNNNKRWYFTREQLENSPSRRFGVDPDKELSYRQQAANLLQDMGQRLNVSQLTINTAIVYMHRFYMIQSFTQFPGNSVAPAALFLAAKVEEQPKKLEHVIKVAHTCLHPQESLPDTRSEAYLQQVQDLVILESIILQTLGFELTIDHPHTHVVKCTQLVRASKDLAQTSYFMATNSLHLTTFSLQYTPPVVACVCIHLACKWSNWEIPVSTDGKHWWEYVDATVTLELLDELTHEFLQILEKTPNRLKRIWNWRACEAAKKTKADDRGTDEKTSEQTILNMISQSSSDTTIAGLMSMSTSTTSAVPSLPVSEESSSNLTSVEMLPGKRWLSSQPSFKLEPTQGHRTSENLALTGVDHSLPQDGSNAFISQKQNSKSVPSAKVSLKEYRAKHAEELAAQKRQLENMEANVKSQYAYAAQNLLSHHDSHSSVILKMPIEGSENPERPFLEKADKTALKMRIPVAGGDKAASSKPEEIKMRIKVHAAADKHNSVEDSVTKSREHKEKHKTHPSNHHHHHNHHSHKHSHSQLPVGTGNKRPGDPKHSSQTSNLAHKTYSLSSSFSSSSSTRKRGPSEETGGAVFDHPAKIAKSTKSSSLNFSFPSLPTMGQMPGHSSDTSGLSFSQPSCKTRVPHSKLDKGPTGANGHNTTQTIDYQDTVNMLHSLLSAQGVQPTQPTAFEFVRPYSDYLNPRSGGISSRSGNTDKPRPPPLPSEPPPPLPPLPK
Chain of CDK9/cyclin T1 (P50750 whole entry, the tested form may be a part): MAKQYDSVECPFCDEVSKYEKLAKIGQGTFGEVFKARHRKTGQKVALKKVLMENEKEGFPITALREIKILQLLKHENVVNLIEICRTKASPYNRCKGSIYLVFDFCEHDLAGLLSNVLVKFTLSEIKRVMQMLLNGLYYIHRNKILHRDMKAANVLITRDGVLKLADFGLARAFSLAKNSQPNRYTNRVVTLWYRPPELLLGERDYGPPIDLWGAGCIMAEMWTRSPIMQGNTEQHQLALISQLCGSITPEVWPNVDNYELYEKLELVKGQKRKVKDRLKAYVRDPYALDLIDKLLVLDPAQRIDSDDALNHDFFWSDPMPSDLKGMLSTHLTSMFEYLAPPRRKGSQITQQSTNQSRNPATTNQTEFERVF

Row | Structure (SMILES) | inhibition of growth at 10 µM [1] [%] | inhibition of growth at 10 µM [2] [%] | inhibition of growth at 10 µM [3] [%] | inhibition of growth at 10 µM [4] [%] | inhibition of growth at 10 µM [5] [%] | inhibition of growth at 10 µM [6] [%] | inhibition of growth at 10 µM [7] [%] | inhibition of growth at 10 µM [8] [%] | inhibition of growth at 10 µM [9] [%] | inhibition of growth at 10 µM [10] [%] | inhibition of growth at 10 µM [11] [%] | inhibition of growth at 10 µM [12] [%] | inhibition of growth at 10 µM [13] [%] | Ki [14] [nM] | inhibition of growth at 10 µM [15] [%] | inhibition of growth at 10 µM [16] [%] | inhibition of growth at 10 µM [17] [%] | inhibition of growth at 10 µM [18] [%] | inhibition of growth at 10 µM [19] [%] | IC50 [20] [µM] | further results
1 | CCOC(=O)CN1C(=O)/C(=N\Nc2ccc(S(N)(=O)=O)cc2)c2cc(Br)ccc21 | 10 | 27 | 84 | 14 | 10 | 14 | 22 | 12 | 33 | 23 | 44 | 15 | 56 | 630 | 14 | 69 | 23 | 18 | 22 | > 10 | inhibition of growth at 10 µM [21]: 12%; inhibition of growth at 10 µM [22]: 69%; Ki [23]: 49.5 nM; inhibition of growth at 10 µM [24]: 21%; inhibition of growth at 10 µM [25]: 37%; inhibition of growth at 10 µM [26]: 25%; inhibition of growth at 10 µM [27]: 16%; inhibition of growth at 10 µM [28]: 86%; Ki [29]: 65.4 nM; inhibition of growth at 10 µM [30]: 14%; inhibition of growth at 10 µM [31]: 15%; inhibition of growth at 10 µM [32]: 21%; Ki [33]: > 10 µM; IC50 [34]: > 10 µM; inhibition of growth at 10 µM [35]: 35%; inhibition of growth at 10 µM [36]: 12%
2 | NS(=O)(=O)c1ccc(N/N=C2\C(=O)N(Cc3ccccc3)c3ccc(Cl)cc32)cc1 | 18 | 16 | 39 | 13 | 55 | 66 | 22 | 13 | 24 | 16 | 35 | 35 | 35 | 52.7 | 36 | 71 | 28 | 26 | 21 | > 10 | inhibition of growth at 10 µM [21]: 20%; inhibition of growth at 10 µM [22]: 17%; Ki [23]: 33.7 nM; inhibition of growth at 10 µM [24]: 30%; inhibition of growth at 10 µM [25]: 20%; inhibition of growth at 10 µM [26]: 40%; inhibition of growth at 10 µM [27]: 25%; inhibition of growth at 10 µM [28]: 31%; Ki [29]: 19.6 nM; inhibition of growth at 10 µM [30]: 18%; inhibition of growth at 10 µM [31]: 11%; inhibition of growth at 10 µM [32]: 13%; Ki [33]: 4.83 µM; IC50 [34]: > 10 µM; inhibition of growth at 10 µM [35]: 18%; inhibition of growth at 10 µM [36]: 12%
